Here are results for 87 molecules from a melting point compilation (Tetko et al.; mined from patent text by program, amines drawn as free bases though some values may be those of a salt).

Structures are written as SMILES.

`CCOC(=O)c1cc2cc(-c3ccccc3)ccc2[nH]1` came in with a melting point of 173 to 174 °C. Molecule `CC(c1ccc(N)cc1)n1ccnc1` (configuration not stated) gave a melting point of 130 °C. `CCCC(C)(Sc1ccc(OCCn2c(CC)nc3ccccc3c2=O)cc1)C(=O)OCC` (configuration not stated) registered a melting point of 148 to 150 °C. Regarding `Cc1cc(=O)n(C(=O)Oc2c(C(=O)c3ccc(Cl)cc3Cl)c(C)nn2C)o1`, the melting point is 180 to 182 °C. Next, `CC(C)(O)C1CCN(Cc2ccc(COc3cccc4c3CN(C3CCC(=O)NC3=O)C4=O)cc2)CC1` (configuration not stated): 160 to 162 °C; `NC(=O)[C@@H]1[C@H](Nc2c(Br)cnc3[nH]c(-c4cccc(CN5CCOCC5)c4)nc23)[C@H]2C=C[C@@H]1C2`: 184 to 185 °C. `CC(C)(C)C(=O)C(Oc1cccc(Cl)n1)n1cncn1` (configuration not stated) displayed a melting point of 103 to 105 °C. In the case of `COc1ccc(-c2nc(NC(C)=O)n3nc(-c4ccco4)nc3n2)cc1`, the melting point is 243 to 246 °C. `Cc1ccc(Nc2cccc3c2OC(COS(=O)(=O)c2ccc(C)cc2)C3)cc1` (configuration not stated): the melting point was 118 to 120 °C. In turn, `CCOC(=O)c1[nH]c2ccc(Cl)cc2c1Cc1ccccc1` showed a melting point of 196 to 197 °C. `CC1=C(C(=O)OCCOc2ccccc2)C(c2ccccc2C(F)(F)F)c2c(ccnc2OCC(C)C)N1` (configuration not stated) came in with a melting point of 108 to 109 °C. For `CC(C)(CCl)C(O)C(=Cc1ccc(Cl)cc1)n1cncn1` (configuration not stated), the melting point was 170 °C. In turn, `O=C1c2ccccc2C(=O)N1OCF` yielded a melting point of 126 to 127 °C. For `CCCCCCCCCCCCc1nnc(C(C(=O)Nc2c(C(C)C)cccc2C(C)C)c2ccccc2)o1` (configuration not stated), the melting point lay within 82 to 84 °C. Then `CC(=O)[C@H]1CC[C@H](c2ccc(Cl)cc2)CC1`, with 74.6 °C.

The molecule `COC(=O)c1ccc(-c2ccccc2-c2nnn(C(C)(C)c3ccccc3)n2)cc1` registered a melting point of 97 to 98 °C. Turning to `CCOC(=O)CC(C(=O)c1ccccc1)C(=O)c1ccccc1`, the melting point lay in the range of 81 to 83 °C. Consider `O=C1Nc2ccccc2Oc2sc3ccccc3c21`, for which the melting point is 240 to 242 °C. `Cn1nnnc1SCC1c2cc(OC(=O)c3cccs3)c(OC(=O)c3cccs3)cc2CCN1C(=O)OCC(Cl)(Cl)Cl` (configuration not stated) had a melting point of 139 to 146 °C. Then `Oc1ccc(OCC(O)CNCCNc2cccc3[nH]ncc23)cc1` (configuration not stated), with 151 to 153 °C. In the case of `COC(=O)c1nc(-c2ccc(Cl)cc2)nc(NCc2ccco2)c1Cl`, the melting point lay within 132 to 134 °C. `COc1cc(N2CCCCC2)ccc1C(=O)c1ccccc1C(=O)O` returned a melting point of 199 to 201 °C. Molecule `COc1cc(Oc2cccc(C(F)(F)F)c2)nc(C(=O)NN=C(C)C)c1` had a melting point of 134 to 136 °C. Take `CC(=O)c1cccc(Oc2ncc(C(F)(F)F)cc2F)c1`: the melting point fell in the range of 65 to 67 °C.

Turning to `Cc1cccc(C(=O)NC(Nc2c(Nc3cccnc3)c(=O)c2=O)C(C)(C)Cc2ccccc2)c1` (configuration not stated), the melting point fell in the range of 234 to 235 °C. Consider `Oc1ccc2nc(-c3cccc(Cl)c3)oc2c1`, for which the melting point is 246 to 248 °C. Take `O=S(=O)(Nc1ccc2c(OCc3cccc(-c4ccc(C(F)(F)F)cc4)n3)cccc2c1)C(F)(F)F`: the melting point was in the range of 180 to 182 °C. Turning to `CN1C(=O)C(C)(C)N=C(c2ccccc2F)c2c(Cl)c(N)c(Cl)c(Cl)c21`, the melting point was 165 to 166 °C. `O=c1[nH]cnc2c1ncn2[C@@H]1CO[C@H](CO)C1` had a melting point of 98 °C. In the case of `COc1ccc(/C=C/c2ccccn2)cc1OC1CCCC1`, the melting point was in the range of 76 to 77.5 °C. Turning to `Cc1oc(-c2ccccc2)nc1CCOc1ccc(C[C@@H](C(=O)O)n2cccc2)cc1`, the melting point lay in the range of 155 to 156 °C. The molecule `O=C1c2ccccc2S(=O)(=O)N1CCCCCCOc1ccccc1` registered a melting point of 64 to 66 °C. `COc1ccc(CCN(C)CCCc2ccc(NC(=O)c3cccc4c(=O)c5ccccc5[nH]c34)cc2)cc1OC` came in with a melting point of 114 °C. For `COC(=O)C(CSc1ccccc1)N1CC(NC(=O)C(=NO)c2ccccc2)C1=O` (configuration not stated), the melting point lay in the range of 163 to 169 °C. `O=C(O)CN1C(=O)C(=Cc2ccc(OCc3ccc(F)cc3F)c(OCc3ccc(F)cc3F)c2)SC1=S` registered a melting point of 251 to 254 °C.

With `CC(=O)Oc1c(C)c(C)c2c(c1C)CCC(C)(COc1ccc(N)cc1)O2` (configuration not stated), the melting point lay within 138 to 140 °C.

With `Cc1cc(C)n(-c2cnc(CN(C)C)c(Nc3ccc(Cl)cc3)n2)n1`, the melting point lay in the range of 112 to 114 °C. On to `CC1(C)CC2(CC(C)(C)c3ccc(O)cc32)c2cc(O)ccc21`, for which the melting point fell in the range of 215 to 217 °C. Regarding `CC(=O)NC[C@H](O)CC(=O)NN`, the melting point came out at 178 °C.

Consider `COc1cc(C(C)C)ccc1C1(NC(N)=O)C(=O)c2ccccc2C1=O`, for which the melting point lay in the range of 272 to 274 °C. Then `CCCCCCCCCCCCCCC(CCC(=O)OCc1ccccc1)C(=O)O` (configuration not stated), with 62 to 63 °C. `N#CC(N)c1ccc(F)cc1F` (configuration not stated) had a melting point of 52 °C. Molecule `CCOC(=O)c1ccc(-c2cnc3c(c2)N(Cc2ccccc2OC(F)(F)F)CCN3)cc1` yielded a melting point of 153 °C. `CC(=O)OCc1cc2c(C(O)CN(Cc3ccccc3)C(C)(C)C)ccc(OCc3ccccc3)c2[nH]1` (configuration not stated) came in with a melting point of 133 to 134 °C. Then `COC(=O)c1ccccc1OCCCOc1cc2c(cc1O)CCO2`, with 96 to 97 °C; and `CCCc1nnc2ccc(-c3ccccc3)nn12`, with 123 to 125 °C.

For the molecule `C=C1CCC2C3CCC4=CC(=O)CCC4C3CCC12C` (configuration not stated), the melting point was 83 to 89 °C. For `O=C(O)c1ccc(OCCc2c(CCNS(=O)(=O)Cc3ccc(Cl)c(Cl)c3)n(C(c3ccccc3)c3ccccc3)c3ccc(Cl)cc23)cc1F`, the melting point fell in the range of 117 to 119 °C. Next, `CC(C)=CCCC(C)=CCc1c(-c2ccc(O)cc2O)oc2cc(O)cc(O)c2c1=O`: 94 to 95 °C. `COc1cc(Nc2c(C#N)cnc3cc(NC(C)=O)c(OC)cc23)c(Cl)cc1Cl` yielded a melting point of 267 to 270 °C.

`O=C(O)[C@@H]1CS[C@@H](CS)C1` gave a melting point of 54.3 to 55.9 °C. Then `COc1ccc(/C=C/C(=O)CC(=O)/C=C/c2ccc(O)c(F)c2)cc1O`, with 173 to 176 °C; and `Cc1ccc(S(=O)(=O)OCCC2(C)OCCc3nc(-c4ccccc4)sc32)cc1` (configuration not stated), with 86 to 87 °C; and `COC(=O)c1ccc(CC(C)NCC(O)c2ccccc2)cc1` (configuration not stated), with 82 to 84 °C. For the molecule `COc1cc(-c2c(Cl)c(CNC(C)(C)C)nc3sc4c(c23)CCN(C(=O)c2ccccc2)C4)ccc1OC(C)C`, the melting point was in the range of 165 to 166 °C. Molecule `CCCCn1c(=O)n(Cc2ccccc2)c(=O)c2c(Cl)cc(Cl)cc21` gave a melting point of 108 to 110 °C.

In turn, `CC(C)NC(=O)CC(=O)C=Cc1ccccc1[N+](=O)[O-]` gave a melting point of 132 to 135 °C. `Cc1nc(-c2ccccc2)nc(NCC(=O)N(C)c2ccccc2)c1Cl` gave a melting point of 154 to 155 °C. `O=[N+]([O-])c1ccc(F)nc1Nc1ccc2c(c1)OCO2` showed a melting point of 161 to 162 °C. Then `COc1cc(-c2ccc(C(F)(F)F)cc2)nc(SC)n1`, with 82 to 84 °C.

Turning to `Cc1cc(C)c2nc(NC3CCN(CCC(N)=O)CC3)n(Cc3nc(C)ccc3O)c2c1`, the melting point turned out to be 212 °C. Next, `CCCCC/C(=C/C=C/C(=O)Oc1ccc([N+](=O)[O-])cc1)c1cccc(F)c1`: 50 to 51 °C; `Nn1cc(I)c(=O)[nH]c1=O`: 195 to 196 °C; `COc1cc2[nH]cc(C(=O)NN3CCNC3=O)c(=O)c2cc1OC`: over 300 °C. `Nc1cc(C(=O)O)cc(S(N)(=O)=O)c1Nc1ccccc1` gave a melting point of 251 °C. In turn, `NC(=O)n1nc(-c2ccco2)cc1N` came in with a melting point of 145 °C.

As for `CC1(C)CC(C)(c2ccc(Oc3cccc([N+](=O)[O-])c3)cc2)c2cc(Oc3cccc([N+](=O)[O-])c3)ccc21` (configuration not stated), the melting point was in the range of 90 to 92 °C. Next, `CCc1ccc(C(=O)Nc2ccc(F)c(F)c2)cc1N`: 108 to 110 °C; `Cc1nnc2nc(-c3ccccc3)c3cc([N+](=O)[O-])ccc3n12`: 350 to 352 °C. Then `CC(=O)c1cn(-c2cc(C)c3[nH]c(=O)ccc3c2)c(C)n1`, with 306 to 308 °C.

Molecule `Clc1ccc(-c2cn3cc(Br)ccc3n2)cc1` came in with a melting point of 210 to 211 °C. `COc1cc(N2CCN(C)CC2)ccc1-c1cnn2c(N)c(-c3cccc(Cl)c3)c(C)nc12` displayed a melting point of 174 to 178 °C. In the case of `CC(C)(C)OC(=O)NC(C)(C)c1ccc(-c2nc(Nc3ccc(OCCO)cc3)ncc2C#N)cc1`, the melting point was 126 to 127 °C.

The molecule `O=C(C(=O)c1ccccc1Br)c1ccc(F)cc1` registered a melting point of 72 to 78 °C. Then `CC(=O)Nc1nc2n(n1)Cc1ccccc1-2`, with 258 to 259 °C; and `C[C@H](C(=O)O)C(C)(C)c1ccccc1`, with 69 to 72 °C; and `Cc1ccc(C(=S)c2c(C)cc(Cc3ccc(N)cc3F)n2C)cc1`, with 199 to 200 °C. Next, `CC(C)C[C@H](NC(=O)Nc1n[nH]c(=S)s1)C(=O)NCc1ccccc1`: 206 to 208 °C. In the case of `Fc1ccc(-c2coc(-c3cn([C@H]4CN5CCC4CC5)nn3)c2)cn1`, the melting point was found to be 210 °C. Consider `COC(=O)C1=C(C)NC(C)=C(C(=O)OC(C)(C)C)C1c1cccc(N)c1` (configuration not stated), for which the melting point is 85 to 90 °C. For the molecule `O=C(Nc1ccncc1)OC1CN2CCC1CC2` (configuration not stated), the melting point is 149 to 151 °C. `CC(=O)Oc1ccc(/C=C2/Sc3nc(Nc4ccc(N5CCN(C)CC5)cc4)ncc3NC2=O)cc1`: the melting point lay within 168 to 171 °C. The molecule `CCC1(CC)OC(C(=O)O)Oc2ccc(Cl)cc21` (configuration not stated) came in with a melting point of 108 °C. In turn, `CCCc1c(O)c(C(C)=O)cc2c1N=C(C(=O)OC)CC2=O` yielded a melting point of 169 to 170 °C. Next, `Oc1cccc(COC=C2C3CC4CC(C3)CC2C4)c1`: 133 to 134 °C; `Cc1cccc(CN2CCCN(C)C(=O)[C@H]2NC(=O)OCc2ccccc2)c1`: 70 to 71 °C. Consider `COc1cc2c(c3c1C1CCC3CC1)OC(COS(=O)(=O)c1ccc(C)cc1)C2` (configuration not stated), for which the melting point was in the range of 136 to 141 °C.

The term melting point denotes the temperature of the solid-liquid transition.
